In patent publication US20040266766A1, “Selective urokinase inhibitors” (Wilex AG, priority 2001, published 2004):
Structures can show the parent of a compound that is named as a salt. Where two headings read alike, the source gives them in different places.

How the values were obtained:
PK = PK (Homo sapiens, UniProt P03952); experiment: In vitro inhibition of PK (Ki); assay type: biochemical; details: summary table
Protocol: (§1) In order to determine the inhibitory activity, 200 μl Tris buffer (0.05 mol/l containing the inhibitor, 0.154 mol/l NaCl, pH 8.0), 25 μl substrate (Pefachrome uPA, Pefachrome PL or Pefabloc TH in H2O; Pentapharm Ltd, Basle, Switzerland) and 50 μl urokinase (Calbiochem-Novabiochem GmbH, Bad Soden, Germany) or another appropriate protease e.g. plasmin, thrombin or FXa are incubated for 10 minutes at 30° C. After ca. 30 minutes and 30 cycles the absorption is determined at 405 nm by means of a microplate reader (Mediators PHL, Aureon Biosystems, Vienna, Austria). The Ki values were determined according to Dixon by linear regression using a computer program.

Thrombin = Thrombin (Homo sapiens, UniProt P00734); experiment: In vitro inhibition of thrombin (Ki according to Dixon); assay type: biochemical
Protocol: as §1

urokinase (uPA) = molecular target: T1, urokinase (uPA) (Homo sapiens, UniProt P00749); experiment: In vitro inhibition of urokinase (Ki according to Dixon, chromogenic substrate); assay type: biochemical
T1 construct: purchased Calbiochem-Novabiochem GmbH, Bad Soden, Germany
Protocol: as §1

FXa = FXa (Homo sapiens, UniProt P00742); experiment: In vitro inhibition of FXa (Ki according to Dixon); assay type: biochemical
Protocol: as §1

Plasmin = Plasmin (Homo sapiens, UniProt P00747); experiment: In vitro inhibition of plasmin (Ki according to Dixon); assay type: biochemical
Protocol: as §1

Caco-2 cell monolayers = experiment: Caco-assay: transport across Caco-2 cell monolayers; assay type: in vitro ADME, human; details: for % amount in the basolateral compartment: 10 μg/ml apical, four hours
Protocol: Transport of the compounds WX-508, WXC-316, WXC-318, WXC-324, WXC-340, WX-532, WX-538, WX-550 and WX-582 across Caco-2 cell monolayers was investigated. In this experiment the bioavailability of the said compounds after oral administration was assessed.
Caco-2-cells (American Type Culture Collection, Rockville, Md., USA) were cultured in Dulbecco's modified Eagle medium (DMEM) (Life Technologies, Gibco BRL, UK) containing 10% vol/vol heat-denatured foetal calf serum (FCS), 1% vol/vol non-essential amino acids, 160 U/ml benzylpenicillin and 100 U/ml streptomycin (Sigma Chemical, St. Louis, Mo., USA). The cells are kept at 37° C. in an atmosphere comprising 95% air and 5% CO2 at 90% relative air humidity. The cells are cultured in […] culture flasks, the medium being replaced every second day and the cells are trypsinized once per week.
For the transport investigations the Caco-2 cells are cultured on porous polycarbonate filter membranes having a pore size of 0.4 μm and a surface of 4.7 cm^2 in clusters of 6 wells (Costar Transwell, Badhoevedorp, Netherlands). The cells are inoculated on each filter at an initial density of 10^4 cells/cm^2. These cells are kept at 37° C. in one of the atmospheres described above. The medium is replaced every second day for a period of three weeks.
On the day of the transport experiment the culture medium was replaced by the same volume of Hank's balanced saline solution (HBSS) buffered with 30 mM HEPES at pH 7.2 (transport medium) and the cells are allowed to equilibrate for 1 hour. Afterwards the apical medium is replaced by 1.5 ml of a solution containing one of the compounds in HBSS/HEPES (10 μg/ml). Cell monolayers are incubated for four hours. Samples of the apical and basolateral compartments are removed at the end of the experiments and used to quantitatively determine the transport of the respective compounds.
The transepithelial electric resistance (TEER) is measured before and after equilibration using a Milicell ERS meter which was connected to a pair of electrodes in order to ensure the integrity of the monolayers formed on the filters. TEER is also measured at the end of the experiments to ensure that the cell monolayer remains coherent.
Samples are taken from the apical and the basolateral side and analysed in a beta counter after adding a scintillation cocktail. All experiments were carried out three times.

[1] = Oral bioavailability and plasma kinetics in mice (serum concentration); assay type: in vivo, Balb/c mice; details: mouse; for concentration at 20 min / concentration at 40 min / concentration at 60 min: female, Balb/c, serum, po; for concentration at 20 min: sample at 20 minutes; for concentration at 40 min: sample at 40 minutes; for concentration at 60 min: sample at 60 minutes
[2] = list of test substances of Example 17, read-out: Ki human uPA
[3] = summary table, read-out: Ki uPA
[4] = 30 mg/kg, 30 mg/kg oral, read-out: c in the serum 1st analysis
[5] = 30 mg/kg, 30 mg/kg oral, read-out: c in the serum 2nd analysis
[6] = 300 mg/kg, 300 mg/kg oral, read-out: c in the serum 1st analysis
[7] = 300 mg/kg, 300 mg/kg oral, read-out: c in the serum 2nd analysis
[8] = 10 mg/kg i.v., time of sample collection 0
[9] = 10 mg/kg i.v., time of sample collection 10
[10] = 10 mg/kg i.v., time of sample collection 30
[11] = 7.5 mg/kg, 7.5 mg/kg oral, read-out: c in the serum 1st analysis
[12] = 75 mg/kg, 75 mg/kg oral, read-out: c in the serum 1st analysis

Chain of Plasmin (P00747 581-810 limits assumed, species assumed): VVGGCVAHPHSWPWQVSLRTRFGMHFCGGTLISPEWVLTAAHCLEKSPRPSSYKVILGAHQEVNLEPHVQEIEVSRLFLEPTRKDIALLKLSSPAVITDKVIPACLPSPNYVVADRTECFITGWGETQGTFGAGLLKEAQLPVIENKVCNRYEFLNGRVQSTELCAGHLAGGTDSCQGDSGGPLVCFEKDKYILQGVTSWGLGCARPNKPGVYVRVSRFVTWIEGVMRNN
Chain of Plasmin (P00747 97-580 partner limits assumed, species assumed): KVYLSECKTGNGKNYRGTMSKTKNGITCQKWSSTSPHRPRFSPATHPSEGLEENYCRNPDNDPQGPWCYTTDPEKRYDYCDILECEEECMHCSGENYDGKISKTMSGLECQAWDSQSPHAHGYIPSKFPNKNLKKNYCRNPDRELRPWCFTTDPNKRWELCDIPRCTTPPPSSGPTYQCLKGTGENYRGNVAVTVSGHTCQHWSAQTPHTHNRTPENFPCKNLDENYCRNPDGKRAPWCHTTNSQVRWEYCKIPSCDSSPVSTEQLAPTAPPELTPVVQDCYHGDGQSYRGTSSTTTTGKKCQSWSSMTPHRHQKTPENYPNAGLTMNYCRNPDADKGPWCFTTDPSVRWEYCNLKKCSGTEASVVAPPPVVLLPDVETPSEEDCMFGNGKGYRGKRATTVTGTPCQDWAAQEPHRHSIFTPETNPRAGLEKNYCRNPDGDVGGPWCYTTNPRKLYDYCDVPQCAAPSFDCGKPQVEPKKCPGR
Chain of PK (P03952 20-638): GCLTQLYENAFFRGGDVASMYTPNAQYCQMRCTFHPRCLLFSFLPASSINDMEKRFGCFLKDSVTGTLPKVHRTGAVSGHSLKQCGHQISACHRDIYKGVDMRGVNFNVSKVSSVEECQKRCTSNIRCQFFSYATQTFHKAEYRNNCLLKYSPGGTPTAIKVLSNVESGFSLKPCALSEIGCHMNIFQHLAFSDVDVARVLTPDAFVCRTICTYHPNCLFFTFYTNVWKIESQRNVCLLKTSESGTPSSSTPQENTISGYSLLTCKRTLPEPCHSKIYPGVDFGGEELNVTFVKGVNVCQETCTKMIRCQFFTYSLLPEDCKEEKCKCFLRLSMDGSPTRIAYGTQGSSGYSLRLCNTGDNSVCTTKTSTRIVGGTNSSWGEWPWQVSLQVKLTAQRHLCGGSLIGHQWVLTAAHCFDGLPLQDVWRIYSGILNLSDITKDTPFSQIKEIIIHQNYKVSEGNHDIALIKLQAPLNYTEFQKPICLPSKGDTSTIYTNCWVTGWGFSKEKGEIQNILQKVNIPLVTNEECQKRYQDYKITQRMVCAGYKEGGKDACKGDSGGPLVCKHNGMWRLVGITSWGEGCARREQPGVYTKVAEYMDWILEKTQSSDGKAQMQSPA
Chain of FXa (P00742 235-488 limits assumed): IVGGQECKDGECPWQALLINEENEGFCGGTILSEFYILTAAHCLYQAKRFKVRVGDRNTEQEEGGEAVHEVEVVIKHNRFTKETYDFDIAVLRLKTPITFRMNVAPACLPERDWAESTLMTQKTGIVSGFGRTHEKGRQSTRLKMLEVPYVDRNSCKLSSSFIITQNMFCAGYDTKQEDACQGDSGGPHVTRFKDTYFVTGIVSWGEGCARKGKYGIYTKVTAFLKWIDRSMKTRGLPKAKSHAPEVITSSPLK
Chain of FXa (P00742 41-179 partner limits assumed): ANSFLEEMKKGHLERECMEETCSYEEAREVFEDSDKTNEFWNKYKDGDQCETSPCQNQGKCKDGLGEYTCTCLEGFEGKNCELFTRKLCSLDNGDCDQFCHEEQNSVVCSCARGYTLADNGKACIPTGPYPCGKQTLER

SMILES | Ki (PK) [nM] | Ki Thrombin (Thrombin) | Ki Thrombin (Thrombin; summary table) | Ki (urokinase (uPA); [2]) [nM] | Ki (urokinase (uPA); read-out: Ki uPA) [nM] | Ki (urokinase (uPA); [3]) [nM] | Ki (FXa) [nM] | Ki Plasmin (Plasmin) | Ki Plasmin (Plasmin; summary table) | % amount in the basolateral compartment (Caco-2 cell monolayers; first value column) [%] | % amount in the basolateral compartment (Caco-2 cell monolayers; second value column) [%] | % amount in the basolateral compartment (Caco-2 cell monolayers; third value column) [%] | Caco-2 assay % basolateral (Caco-2 cell monolayers; first series, first value) [%] | Caco-2 assay % basolateral (Caco-2 cell monolayers; first series, second value) [%] | Caco-2 assay % basolateral (Caco-2 cell monolayers; first series, third value) [%] | Caco-2 assay % basolateral (Caco-2 cell monolayers; second series, first value) [%] | Caco-2 assay % basolateral (Caco-2 cell monolayers; second series, second value) [%] | Caco-2 assay % basolateral (Caco-2 cell monolayers; second series, third value) [%] | concentration at 20 min [1, 4] [ng/mL] | concentration at 20 min [1, 5] [ng/mL] | also measured
N=C(N)Nc1ccc(CNC(=O)CNC(=O)C(CO)NS(=O)(=O)Cc2cccc([N+](=O)[O-])c2)cc1 (stereo not drawn) [WX-C316, 3-Nitrobenzyl-sulfonyl-(D)-Ser-Gly-(4-guanidinobenzyl)amide hydrochloride] | 875000 | no inh. at 100 μM *) | no inh. at 100 μM *) | 90 | 90 | 90 | 32400 | no inh. at 100 μM *) | no inh. at 100 μM *) | 0.2 | 0.2 | 3.6 | 0.2 | 0.2 | 3.4 | 0.1 | 0.1 | 3.6 | 500 | 600 | concentration at 40 min [1, 4]: 5900 ng/mL; concentration at 40 min [1, 5]: 7100 ng/mL; concentration at 60 min [1, 4]: 400 ng/mL; concentration at 60 min [1, 5]: 500 ng/mL; concentration at 20 min [1, 6]: 6000 ng/mL; concentration at 20 min [1, 7]: 7200 ng/mL; concentration at 40 min [1, 6]: 21800 ng/mL; concentration at 40 min [1, 7]: 32100 ng/mL; concentration at 60 min [1, 6]: 5300 ng/mL; concentration at 60 min [1, 7]: 5800 ng/mL; c in the serum 1st analysis [1, 8]: 45.4 µg/mL; c in the serum 2nd analysis [1, 8]: 67.5 µg/mL; c in the serum 1st analysis [1, 9]: 12.4 µg/mL; c in the serum 2nd analysis [1, 9]: 14.3 µg/mL; c in the serum 1st analysis [1, 10]: 2.7 µg/mL; c in the serum 2nd analysis [1, 10]: 2.6 µg/mL
N=C(N)Nc1ccc(CNC(=O)CNC(=O)C(CO)NS(=O)(=O)Cc2cccc(Cl)c2)cc1 (stereo not drawn) [WX-C318, 3-Chlorobenzyl-sulfonyl-(D)-Ser-Gly-(4-guanidinobenzyl)amide hydrochloride] | 176000 | no inh. at 100 μM *) | no inh. at 100 μM *) | 47 | 47 | 47 | 36000 | no inh. at 100 μM *) | no inh. at 100 μM *) | 0.4 | 1.0 | 4.5 | 0.4 | 1.0 | 4.5 | 0.2 | 0.6 | 7.0 | 100 | 200 | concentration at 40 min [1, 5]: 50 ng/mL; concentration at 60 min [1, 4]: 200 ng/mL; concentration at 60 min [1, 5]: 200 ng/mL; concentration at 20 min [1, 6]: 100000 ng/mL; concentration at 20 min [1, 7]: 82600 ng/mL; concentration at 40 min [1, 6]: 5400 ng/mL; concentration at 40 min [1, 7]: 6200 ng/mL; concentration at 60 min [1, 6]: 7500 ng/mL; concentration at 60 min [1, 7]: 7700 ng/mL; c in the serum 2nd analysis [1, 8]: 48.4 µg/mL; c in the serum 1st analysis [1, 9]: 4.3 µg/mL; c in the serum 2nd analysis [1, 9]: 5.5 µg/mL; c in the serum 1st analysis [1, 10]: 0.7 µg/mL; c in the serum 2nd analysis [1, 10]: 1.4 µg/mL
N=C(N)Nc1ccc(CNC(=O)[C@H](CCc2ccccc2)NC(=O)C(CO)NS(=O)(=O)Cc2ccccc2)cc1 (stereo partly shown) [WX-550, Benzylsulfonyl-(D)-Ser-HomoPhe-(4-guanidinobenzyl)amide hydrochloride] | 268000 | – | – | 100 | 100 | 100 | > 100000 | – | – | 0 | 3.1 | 0.6 | 0 | 3.1 | 0.6 | – | – | – | – | – | Ki (Thrombin): > 50000 nM; Ki (Thrombin; summary table): > 50000 nM; Ki (FXa; summary table): > 100000 nM; Ki (Plasmin): 2500 nM; concentration at 20 min [1, 11]: 0 ng/mL; concentration at 40 min [1, 11]: 0 ng/mL; concentration at 60 min [1, 11]: 0 ng/mL; concentration at 20 min [1, 12]: 0 ng/mL; concentration at 40 min [1, 12]: 300 ng/mL; concentration at 60 min [1, 12]: 0 ng/mL; c in the serum 1st analysis ([1]; 2.5 mg/kg i.v., time of sample collection 0): 7.2 µg/mL; c in the serum 1st analysis ([1]; 2.5 mg/kg i.v., time of sample collection 10): 0.7 µg/mL; c in the serum 1st analysis ([1]; 2.5 mg/kg i.v., time of sample collection 30): 0.02 µg/mL
